Our source for the Ki and LC50 values is ChEMBL document CHEMBL1150893, “Grenadadiene and grenadamide, cyclopropyl-containing fatty acid metabolites from the marine cyanobacterium Lyngbya majuscula” (J Nat Prod, 1998).

Broadly, the Ki is a measure of affinity in units of concentration, obtained from inhibition or displacement.

Series [1] can be described thus: Binding affinity to cannabinoid receptor in rat brain membrane assessed as cannabinomimetic activity. Type of series: cell membranes.
Series [2] is described as follows: Toxicity in Artemia salina. Type of series: organism-based. The following applies: in vivo, read-out: LD50 (the source's name).

In brackets after ≈: the same amount, converted by molar mass.

`CCCCCCC[C@@H]1C[C@H]1CCC(=O)NCCc1ccccc1` [GRENADAMIDE C]: the Ki in series [1] came out at 4.7 µM. In addition, in series [2], the LC50 came to 5 µg/mL (≈ 15.8 µM).

In the case of `CCCCCCC[C@@H]1C[C@H]1CCC(=O)O/C=C\C=C\COC(C)=O` [DEBROMOGRENADINE], the inhibitory constant (Ki) in series [1] was determined as 4.7 µM. Also, the LC50 in series [2] came out at 5 µg/mL (≈ 14.9 µM).
